# Paper PMC3466217, “A Novel Magnetic Nanoparticle Drug Carrier for Enhanced Cancer Chemotherapy” (PLoS ONE, 2012)
# What was measured:
# H22 cells = assay: Cytotoxicity in H22 cell culture (MTT assay); assay type: cell-based, mouse; conditions: 24 hrs, concentration as DOX
# Protocol: A volume of 180 µl of H22 cells were seeded in 96-well plates (4,000 cells/well).
# Control cells were cultured in medium only. Thiazolyl blue tetrazolium bromide (25 µl of 5 mg/ml) (MTT, AMRESCO Inc, Solon, OH) was added to each well and incubated for 4 hrs. The culture medium was removed from the wells and replaced with 150 µl dimethylsulfoxide (DMSO, BioTek, Winooski, VT). After shaking gently for 15 min at 25°C, the DMSO solution was transferred to centrifugation tubes and centrifuged at 2,000 rpm for 5 min. The absorbance was then measured at 570 nm with an ELx-800 Universal Microplate Reader (BioTek, Winooski, VT). […] The half-maximal inhibitory concentration (IC50; drug concentration corresponding to 50% growth inhibition) was calculated using SigmaPlot 9.0 software (Systat Software Inc., San Jose, CA) and the 4-parameter logistic function standard curve analysis for dose response.
# [1] = DOX biodistribution in H22 tumor-bearing mice; assay type: in vivo, BALB/c mice; conditions: 5 mg DOX/kg, tail vein, 0.5 hr after treatment, no EMF
# Protocol: The blood, main organs (heart, lung, liver, spleen, kidney), and the tumor of each mouse were harvested for quantitative analysis of the DOX biodistribution. The blood was centrifuged at 5,000 rpm for 1 min at 4°C and the supernatant was obtained by adding 180 µl methanol and 20 µl of inner standard solution (0.2 mg/ml daunorubicin solution dissolved in methanol) to a 2-ml tube containing 200 µl plasma. For the organ (heart, lung, liver, spleen, kidney) and tumor samples, the frozen tissues were weighed and homogenized at 4°C in 0.9% NaCl to a total volume of 10 ml, and centrifuged at 5,000 rpm for 1 min at 4°C to retrieve the supernatant.
# A total volume of 200 µl of the plasma, or the supernatant of homogenized tissue, or the tumor samples was then mixed with 180 µl methanols and 20 µl inner standard solutions, followed by 0.4 g sodium sulfate. The mixture was homogenized by vortexing for 5 min and then incubated at 4°C for 1 hr. After the 1-hr incubation, the mixture was centrifuged at 12,000 rpm for 15 min. […] Finally, the percent-injected dose per gram tissue of the tissue and tumor samples was calculated.
# H22 hepatoma cell tumor = assay: Chemotherapy experiments in H22 tumor-bearing mice (tumor volume, life span, histology); conditions: no EMF
# Protocol: The mouse hepatoma H22 cell line was grown in RPMI-1640 medium supplemented with 10% FBS, 100 units/ml of penicillin and 100 µg/ml of streptomycin at 37°C and 5% CO2. BALB/c mice (4- to 8-week-old males, body weight 26±5 g) were housed (one mouse per cage) under specific pathogen-free conditions, maintained on a 12-hour light-dark cycle with controlled temperature (20–24°C), and were given sterile food. The tumor-bearing mouse model was generated by subcutaneous injection of 4×10^5 H22 cells with 50 µl phosphate-buffered saline (PBS) into the shaved right flank. The treatment protocol required the mice to be anesthetized and these were anesthetized with ketamine (80 mg/kg) and xylazine (3 mg/kg), and acepromazine (2 mg/kg) via intraperitoneal injection (IP). If an additional dose was needed, ketamine alone was used.
# The doses were normalized to 5 mg DOX per kg body weight when the tumor volume reached 50 to 100 mm^3 (∼10 days after tumor cell inoculation). The volume for 150 µl was injected via the tail vein and the treatment was carried out three times without interval in three weeks.
# Chemotherapy experiments: H22 tumor-bearing mice (4 groups; for each group, n = 18) were used and the treatment was performed as described above. The antitumor effect was assessed by the following steps: 1) six mice were sacrificed for each group on the 24th day following treatment. The tumors were harvested and fixed in 10% formalin, embedded in paraffin and sectioned (5 µm coupes) for hematoxylin–eosin (HE) staining for microscopic examination purposes; 2) tumor sizes (4 groups; for each group, n = 12) were measured by a caliper before therapy and every three days after treatment using the following equation: tumor volume (V, mm^3) = (tumor length×tumor width)^2/2. The life span of each animal was also recorded. The relative tumor volume was calculated from V = V/V0, where V0 is the tumor volume at the beginning of treatment. The endpoints of the antitumor effect were evaluated by the degree of tumor growth inhibition and life span after treatment.
smiles,measurement,setting,value
"COc1cccc2c1C(=O)c1c(O)c3c(c(O)c1C2=O)C[C@@](O)(C(=O)CO)C[C@@H]3O[C@H]1C[C@H](N)[C@H](O)[C@H](C)O1 [DOX, doxorubicin]",IC50 (cell inhibition rate),H22 cells,0.530 ± 0.010 µg/mL
same,"DOX concentrations in the other organs (heart, lung and kidney)",[1],Very low concentrations
same,percent injected dose per gram tissue in blood,[1],1.07%
same,percent injected dose per gram tissue in livers,[1],0.402%
same,percent injected dose per gram tissue in spleens,[1],0.634%
same,percent injected dose per gram tissue in tumors,[1],0.741%
same,life span of tumor-bearing mice,H22 hepatoma cell tumor; 5 mg DOX/kg iv three times,31.3 ± 3.31 days
same,tumor histology (HE staining),H22 hepatoma cell tumor; 24th day following treatment,A few necrotic cells were observed
same,relative tumor volume (V/V0),"H22 hepatoma cell tumor; 21 days after start of treatment, 5 mg DOX/kg iv three times",7.08±1.68
same,survival rate of tumor-bearing mice,H22 hepatoma cell tumor; following treatment for 33 days,33.3%
